{
  "source": "patent US20070141341A1",
  "about": "“Coating containing denatured aloe vera, for covering either chlorine-generating compositions or other hazardous chemicals and method for making” (priority 2005, published 2007)",
  "system": "E. coli",
  "test": "Reductions of E. coli organisms",
  "data": [
    {"smiles": "O=c1n(Cl)c(=O)n(Cl)c(=O)n1Cl", "note": "[Uncoated ACL, trichloroisocyanuric acid]", "values": [
      {"measurement": "E. coli remaining after 5 minutes", "setting": "after 5 minutes", "result": 0},
      {"measurement": "E. coli remaining after: ½ hour", "setting": "after ½ hour", "result": "Slightly"}
    ]}
  ]
}
